Data from US11896558B2, “Use of an RXR agonist and taxanes in treating Her2+ cancers” (Io Therapeutics, Inc., priority 2021, dated 2024).
Entries after “also recorded” stand apart in the source; their conditions may differ.

Key:
[1] = system: NSCLC (non-small cell lung cancer); settings: cited from earlier work
PPAR/RXR = experiment: Activation of PPAR/RXR heterodimer; type: cell-based; settings: permissive heterodimer
Nurr1/RXR heterodimer = experiment: Activation of Nurr1/RXR heterodimer; settings: permissive heterodimer
RAR/RXR = experiment: Activation of non-permissive RAR/RXR heterodimer; type: cell-based
[2] = Daily dosing of IRX4204 free acid in adult human; type: in vivo
[3] = Systemic concentrations after oral dosing in humans
RARβ = RARβ (Homo sapiens, UniProt P10826); settings: β isoform
RXR homodimers = experiment: Activation of RXR homodimers; type: cell-based
FXR/RXR = experiment: Activation of FXR/RXR heterodimer; settings: permissive heterodimer
RARγ = RARγ (Homo sapiens, UniProt P13631); settings: γ isoform
RARα = RARα (Homo sapiens, UniProt P10276); settings: α isoform
[4] = system: Her2+ AU565 human breast cancer cell line; experiment: Growth inhibition of AU565 cells, nuclei count; type: cell-based; settings: paclitaxel 2.5, 5 or 10 nM, IRX4204 10, 100 or 1000 nM, 6-10 days
Experimental: After 6-10 days of treatment, cells were fixed with 4% paraformaldehyde. Nuclei were stained with DAPI, imaged using ImageXpress® Pico (Molecular Devices) and counted using CellReporterXpress® Analysis Software. Each data point represents the average of six replicates.
To assess whether the increased inhibition from the combination of agents was additive or synergistic, the Combination Index (CI) was calculated using the computational program CompuSyn (ComboSyn, Inc.).

LXR/RXR = experiment: Activation of LXR/RXR heterodimer; type: cell-based; settings: permissive heterodimer
[5] = system: PPAR/RXR, FXR/RXR, or LXR/RXR; settings: cited from earlier work

Sequence of RARβ (P10826 whole entry, species assumed, canonical isoform): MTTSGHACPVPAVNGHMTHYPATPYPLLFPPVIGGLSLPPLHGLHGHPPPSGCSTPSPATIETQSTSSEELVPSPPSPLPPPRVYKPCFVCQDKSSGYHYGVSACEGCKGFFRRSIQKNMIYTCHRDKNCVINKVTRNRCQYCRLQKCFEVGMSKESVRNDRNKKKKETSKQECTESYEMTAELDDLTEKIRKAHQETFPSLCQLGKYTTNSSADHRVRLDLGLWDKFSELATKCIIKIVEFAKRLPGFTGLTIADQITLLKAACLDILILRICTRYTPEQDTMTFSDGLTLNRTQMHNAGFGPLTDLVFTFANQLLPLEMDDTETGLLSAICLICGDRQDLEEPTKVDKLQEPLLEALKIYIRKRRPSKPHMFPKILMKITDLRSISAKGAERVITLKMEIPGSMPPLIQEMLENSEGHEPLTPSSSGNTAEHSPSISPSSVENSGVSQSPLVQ
Sequence of RARγ (P13631 whole entry, species assumed, canonical isoform): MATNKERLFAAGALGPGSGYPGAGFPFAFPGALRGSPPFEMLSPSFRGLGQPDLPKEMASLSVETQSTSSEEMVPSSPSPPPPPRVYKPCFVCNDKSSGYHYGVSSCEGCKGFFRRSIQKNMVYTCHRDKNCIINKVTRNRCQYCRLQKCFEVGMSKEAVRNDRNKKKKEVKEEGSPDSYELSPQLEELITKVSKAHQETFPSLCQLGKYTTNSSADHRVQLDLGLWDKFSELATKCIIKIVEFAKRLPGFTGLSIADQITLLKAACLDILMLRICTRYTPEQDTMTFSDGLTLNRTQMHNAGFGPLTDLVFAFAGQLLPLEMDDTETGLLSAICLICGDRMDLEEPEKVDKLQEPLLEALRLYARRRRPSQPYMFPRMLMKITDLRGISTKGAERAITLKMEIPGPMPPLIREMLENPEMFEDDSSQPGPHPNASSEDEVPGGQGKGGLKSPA
Sequence of RARα (P10276 whole entry, species assumed, canonical isoform): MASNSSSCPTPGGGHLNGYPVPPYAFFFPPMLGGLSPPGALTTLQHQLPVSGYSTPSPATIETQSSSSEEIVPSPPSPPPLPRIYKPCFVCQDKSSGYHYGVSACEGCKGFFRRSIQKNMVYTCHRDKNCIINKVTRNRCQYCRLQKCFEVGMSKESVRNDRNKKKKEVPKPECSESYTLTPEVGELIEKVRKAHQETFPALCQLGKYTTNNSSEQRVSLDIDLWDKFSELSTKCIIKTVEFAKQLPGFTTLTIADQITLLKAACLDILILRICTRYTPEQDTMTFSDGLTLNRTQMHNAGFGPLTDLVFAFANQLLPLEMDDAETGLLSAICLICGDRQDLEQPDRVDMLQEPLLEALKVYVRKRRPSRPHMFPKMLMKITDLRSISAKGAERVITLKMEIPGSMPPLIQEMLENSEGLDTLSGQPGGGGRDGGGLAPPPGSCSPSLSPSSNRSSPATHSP

C=C(c1ccc(C(=O)O)cc1)c1cc2c(cc1C)C(C)(C)CCC2(C)C [TARGRETIN, bexarotene]
survival in pivotal Phase III clinical study ([1]; NSCLC): did not show increased survival
results of Phase II studies ([1]; several Phase II studies in NSCLC): Encouraging results

CC(/C=C/[C@@H]1C[C@]1(C)c1ccc2c(c1)C(C)(C)CCC2(C)C)=C\C(=O)O [IRX4204, 3,7-dimethyl-6(S),7(S)-methano,7-[1,1,4,4-tetramethyl-1,2,3,4-tetrahydron-aphth-7-yl]2(E), 4(E) heptadienoic acid]
activation of PPAR/RXR heterodimer (PPAR/RXR): does not activate
activation of Nurr1/RXR heterodimer (Nurr1/RXR heterodimer): specifically activates
activation of RAR/RXR heterodimer (RAR/RXR): does not activate
hypothyroidism ([2]; 10 mg/day free acid): does not result in hypothyroidism
hypothyroidism ([2]; 20 mg/day free acid): may induce a mild hypothyroidism
systemic concentrations ([3]; oral dosage 0.01 to 0.02 mg/m^2/day, estimated): at least 0.1 nM
systemic concentrations ([3]; oral dosage 20 mg/m^2/day, based on studies in humans): below 200 nM
RAR EC10 (concentration effective to cause a 10% of maximal activation of the RAR) (RARβ): 200 nM
activation of RXR homodimers (RXR homodimers): specifically activate
activation of FXR/RXR heterodimer (FXR/RXR): does not activate
RAR EC10 (concentration effective to cause a 10% of maximal activation of the RAR) (RARγ): 200 nM
RAR EC10 (concentration effective to cause a 10% of maximal activation of the RAR) (RARα): 300 nM
growth inhibition as sole agent [4]: sensitive; also recorded: near maximal effect
activation of LXR/RXR heterodimer (LXR/RXR): does not activate

CC(=O)O[C@H]1C(=O)[C@@]2(C)[C@H]([C@H](OC(=O)c3ccccc3)[C@]3(O)C[C@H](OC(=O)[C@H](O)[C@@H](NC(=O)c4ccccc4)c4ccccc4)C(C)=C1C3(C)C)[C@]1(OC(C)=O)CO[C@@H]1C[C@@H]2O [paclitaxel, Paclitaxel, reference compound]
growth inhibition as sole agent [4]: sensitive

Cc1cc2c(cc1C1(c3ccc(C(=O)O)cn3)CC1)C(C)(C)CCC2(C)C [LGD268]
activation of one or more of PPAR/RXR, FXR/RXR, or LXR/RXR [5]: activates one or more of PPAR/RXR, FXR/RXR, or LXR/RXR
